The values below come from PubChem BioAssay (NCI).

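Method: 48-hour compound exposure of cells in 96-well plates, five concentrations, linear interpolation of endpoints. Abbreviation: GI50, concentration required for 50% inhibition of growth. TGI: concentration producing complete growth inhibition.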

Some test systems named below: 786-0 renal; ACHN renal; K-562 leukemia; LXFL 529 NSCLC; M19-MEL melanoma; MALME-3M melanoma; SF-539 CNS; SNB-19 CNS; BT-549 breast; T-47D breast.
Common to all, as to test: DTP human tumour cell line panel, 48 h

As a reminder, the TGI is the concentration at which net growth stops. Read a low TGI as greater sensitivity of the cells. As to `O=C(O)CN(c1ccc(F)cc1)S(=O)(=O)c1ccccc1`, the TGI in the test on 786-0 renal, in the test with ACHN renal, in the test on K-562 leukemia, in the test on LXFL 529 NSCLC, in the test on M19-MEL melanoma and in the test with MALME-3M melanoma was more than 100 µM throughout. Besides, the TGI in the test on SF-539 CNS and in the test on SNB-19 CNS was more than 100 µM throughout.
For the compound `CCOC(=O)CN(c1ccccc1)c1nc(=[N+](C)C)ss1`, the TGI in the test on 786-0 renal is more than 100 µM; with ACHN renal, more than 100 µM; in the test on K-562 leukemia it was more than 100 µM; in the test on M19-MEL melanoma, 34 µM; in the test on MALME-3M melanoma it was 70.4 µM; in the test with SF-539 CNS it was more than 100 µM. For the same compound, in the test on SNB-19 CNS, the TGI is more than 100 µM.
Regarding `O=C(O)c1c2c(cc3c(=O)cc(-c4ccccc4)oc13)CCCC2`, the TGI with 786-0 renal, with ACHN renal, with K-562 leukemia, in the test with LXFL 529 NSCLC, in the test on MALME-3M melanoma and in the test on SF-539 CNS was more than 100 µM throughout. In the test on SNB-19 CNS, the TGI was more than 100 µM.
With `Cc1ccc(C(=O)NCCN(C)C)c2nc3ccccc3cc12`, the TGI with 786-0 renal is more than 100 µM; in the test on ACHN renal, 10.3 µM; in the test on K-562 leukemia, more than 100 µM; with LXFL 529 NSCLC, more than 100 µM; with M19-MEL melanoma, more than 100 µM; in the test with MALME-3M melanoma, more than 100 µM. The compound further came in with a TGI in the test with SNB-19 CNS of 13.6 µM.
Regarding `Cc1ccc(C2=Nc3ccccc3S(=O)C(c3ccc4c(c3)OCO4)C2)cc1` (stereo not drawn), the TGI in the test on 786-0 renal is 44 µM; in the test on ACHN renal, 82.4 µM; in the test with K-562 leukemia it was 98.8 µM; in the test on LXFL 529 NSCLC, more than 10 µM; with M19-MEL melanoma, more than 100 µM; in the test with MALME-3M melanoma, more than 100 µM. For the same compound, the results for the TGI in the test with SF-539 CNS and in the test on SNB-19 CNS were 46.3 µM and more than 100 µM, respectively.
As for `CC(C)=NNC(=S)NC12CC3CC(CC(C3)C1)C2`, the TGI in the test on 786-0 renal, with ACHN renal, with K-562 leukemia, in the test on LXFL 529 NSCLC, in the test with M19-MEL melanoma and in the test on SF-539 CNS was more than 100 µM throughout. The same compound yielded a TGI in the test with SNB-19 CNS of more than 100 µM.
For the compound `c1ccc2c(CNCCCCCCCCNCc3cccc4ccccc34)cccc2c1`, the concentration for total growth inhibition (TGI) in the test on 786-0 renal is 3.31 µM; in the test on ACHN renal, 8.36 µM; in the test on K-562 leukemia, 3.73 µM; in the test with LXFL 529 NSCLC, 3.22 µM; in the test with M19-MEL melanoma it was 3.12 µM; with MALME-3M melanoma, 3.41 µM. Moreover, the TGI in the test on SF-539 CNS amounted to 3.04 µM.
As for `COC(=O)C1[C@H](c2ccc3c(c2)OCO3)OC(=O)[C@]1(C(=O)OC)C(=O)c1ccc(OC)c(OC)c1` (stereo partly drawn), the TGI in the test on 786-0 renal, with ACHN renal, in the test with K-562 leukemia, with LXFL 529 NSCLC, with M19-MEL melanoma and with MALME-3M melanoma was more than 100 µM throughout.
As to `CCC1(c2ccc(N)cc2)CCC(=O)NC1=O` (stereo not drawn), the TGI with 786-0 renal is more than 5000 µM; with ACHN renal it was more than 5000 µM; in the test on BT-549 breast, more than 5000 µM; with K-562 leukemia it was more than 5000 µM; in the test on M19-MEL melanoma it was more than 4740 µM; with MALME-3M melanoma, more than 4860 µM. In addition, the TGI in the test with SF-539 CNS was more than 5000 µM; with SNB-19 CNS, more than 5000 µM; in the test with T-47D breast, more than 4730 µM.
As for `COc1cc(O)c2c(c1)C(=O)C1=C(C2=O)C(O)C[C@@](C)(O)C1` (stereo partly drawn), the concentration for total growth inhibition (TGI) in the test with 786-0 renal is 9.25 µM; with ACHN renal, 4.46 µM; in the test with K-562 leukemia, 2.46 µM; with LXFL 529 NSCLC, 2.1 µM; in the test with M19-MEL melanoma it was 1.66 µM; with MALME-3M melanoma it was 2.11 µM. For the same compound, the TGI in the test with SF-539 CNS stood at 5.74 µM; in the test with SNB-19 CNS, 14.1 µM.
Consider `COC12OCCN(C)C1=CC(=O)C1(C)N=NCC12` (stereo not drawn), for which the TGI in the test with 786-0 renal, in the test on ACHN renal, in the test on K-562 leukemia, with LXFL 529 NSCLC, in the test on M19-MEL melanoma and in the test on MALME-3M melanoma was more than 100 µM each time. Besides, the TGI in the test on SF-539 CNS is more than 100 µM.
Consider `CCCCCCCCCCOC(=O)NCCC`, for which the TGI was more than 100 µM in the test on 786-0 renal; more than 100 µM in the test on ACHN renal; more than 100 µM with K-562 leukemia; more than 100 µM with LXFL 529 NSCLC; more than 100 µM in the test with M19-MEL melanoma; 54.8 µM with MALME-3M melanoma. The TGI in the test with SF-539 CNS and with SNB-19 CNS was more than 100 µM each time.
Regarding `O=C(CSSCC(=O)Nc1ccc(Br)cc1)Nc1ccc(Br)cc1`, the TGI in the test on 786-0 renal was 31.4 µM; in the test on ACHN renal it was 30 µM; in the test with K-562 leukemia it was more than 100 µM; with LXFL 529 NSCLC, 31.2 µM; in the test on M19-MEL melanoma it was 34.2 µM; in the test on MALME-3M melanoma it was 43 µM. The TGI is 31.6 µM in the test on SF-539 CNS and 29.4 µM in the test on SNB-19 CNS.
In general, GI50 refers to the concentration at which growth is held to half of that of the control. With `CC[PH+](CC)CC.CC[PH+](CC)CC.[Au]`, the GI50 with 786-0 renal was 7.35 µM; in the test with ACHN renal it was 17.6 µM; in the test on K-562 leukemia, 5.98 µM; with LXFL 529 NSCLC, 2310 nM; in the test with M19-MEL melanoma, 4.06 µM; with MALME-3M melanoma, 11.4 µM. The GI50 is 8.3 µM in the test with SF-539 CNS and 13.4 µM in the test on SNB-19 CNS. In addition, the TGI turned out to be 19.7 µM in the test on 786-0 renal; 31.4 µM in the test on ACHN renal; 41.1 µM in the test on K-562 leukemia; 6.33 µM with LXFL 529 NSCLC; 31.9 µM in the test with M19-MEL melanoma; 24.7 µM with MALME-3M melanoma. Moreover, the figures for the TGI in the test on SF-539 CNS and with SNB-19 CNS were 25.3 µM and 26.4 µM, respectively.
Turning to `N#CCc1nnc(N)o1`, the TGI with 786-0 renal, with ACHN renal, in the test on K-562 leukemia, in the test on LXFL 529 NSCLC, in the test on M19-MEL melanoma and with MALME-3M melanoma was more than 100 µM in each case. Also, the TGI with SF-539 CNS and in the test with SNB-19 CNS was more than 100 µM throughout.
Consider `O=[N+]([O-])c1ccc2c(c1)C(c1ccccc1Cl)=Nc1c(n[nH]c1-c1cccnc1)N2`, for which the GI50 in the test on 786-0 renal, with ACHN renal, in the test on BT-549 breast, with K-562 leukemia, in the test with MALME-3M melanoma and in the test with SF-539 CNS was more than 25 µM throughout. Also, the GI50 in the test on SNB-19 CNS and with T-47D breast was more than 25 µM each time. Further, the TGI in the test on 786-0 renal, in the test on ACHN renal, in the test on BT-549 breast, in the test on K-562 leukemia, with MALME-3M melanoma and in the test on SF-539 CNS was more than 25 µM in each case. In addition, the TGI in the test with SNB-19 CNS and in the test on T-47D breast was more than 25 µM each time.
With `O=C(O)c1cn(C2CC2)c2cc(N3CCN(Cc4c(O)ccc5ccccc45)CC3)c(F)cc2c1=O`, the GI50 with 786-0 renal is 2.58 µM; in the test with ACHN renal, 29.6 µM; in the test with BT-549 breast, 3.5 µM; in the test with K-562 leukemia, more than 100 µM; in the test on MALME-3M melanoma, 4.07 µM; in the test with SF-539 CNS, 2.1 µM. For the same compound, the GI50 in the test with SNB-19 CNS is 91.5 µM; in the test with T-47D breast it was more than 100 µM. Besides, the TGI was 7.05 µM in the test on 786-0 renal; more than 100 µM in the test on ACHN renal; 48.7 µM in the test with BT-549 breast; more than 100 µM with K-562 leukemia; more than 100 µM in the test on MALME-3M melanoma; 4.9 µM in the test with SF-539 CNS. The TGI in the test with SNB-19 CNS and in the test on T-47D breast was more than 100 µM in each case.
